Read-outs that look alike come from different tables or passages of the source.
C=CC(=O)N1CCC([C@@H]2CCNc3c(C(N)=O)c(-c4ccc(Oc5ccccc5)cc4)nn32)CC1 [zanubrutinib, (S)-7-(1-acryloylpiperidin-4-yl)-2-(4-phenoxyphenyl)-4,5,6,7-tetrahydropyrazolo[1,5-a]pyrimidine-3-carboxamide]
Grade ≥3 AE (160 mg bid group): 28.6% | Neutropenia (160 mg bid group): 19.0% | Patients with ≥1 AE (160 mg bid group): 95.2% | SAE (160 mg bid group): 9.5% | Treatment discontinuation due to AEs (160 mg bid group): 4.8% | Grade ≥3 AE (320 mg qd group): 32.0% | Neutropenia (320 mg qd group): 8.0% | Patients with ≥1 AE (320 mg qd group): 96% | SAE (320 mg qd group): 16.0% | Treatment discontinuation due to AEs (320 mg qd group): 12.0% | Arthralgia (67 patients): 13.4% | Contusion (67 patients): 22.4% | Death (COVID-19 pneumonia) (67 patients): 1.5% | Diarrhoea (67 patients): 13.4% | Epistaxis (67 patients): 7.5% | Fatigue (67 patients): 20.9% | Grade ≥3 AEs (67 patients): 29.9% | Hypertension (67 patients): 11.9% | Myalgia (67 patients): 14.9% | Neutropenia or neutrophil count decreased, grade ≥3 (67 patients): 11.9% | Patients with ≥1 AE (67 patients): 95.5% | Petechiae (67 patients): 7.5% | Serious AEs (67 patients): 11.9% | Syncope, grade ≥3 (67 patients): 3.0% | Atrial fibrillation (67 patients, all grade 2): 4.5% | Patients who discontinued zanubrutinib (Cohort 1): 15.8% | Patients who discontinued zanubrutinib due to AEs (Cohort 1): 7.0% | Patients who discontinued zanubrutinib (Cohort 2): 20.0% | Arthralgia (Grade 1): 4 (6.0) n (%) | Back pain (Grade 1): 2 (3.0) n (%) | Bronchitis (Grade 1): 0 (0.0) n (%) | Cellulitis (Grade 1): 0 (0.0) n (%) | Constipation (Grade 1): 3 (4.5) n (%) | Contusion (Grade 1): 12 (17.9) n (%) | Cough (Grade 1): 4 (6.0) n (%) | Diarrhoea (Grade 1): 6 (9.0) n (%) | Dizziness (Grade 1): 3 (4.5) n (%) | Epistaxis (Grade 1): 4 (6.0) n (%) | Fatigue (Grade 1): 8 (11.9) n (%) | Headache (Grade 1): 4 (6.0) n (%) | Hypertension (Grade 1): 0 (0.0) n (%) | Insomnia (Grade 1): 3 (4.5) n (%) | Muscle spasms (Grade 1): 4 (6.0) n (%) | Myalgia (Grade 1): 8 (11.9) n (%) | Nausea (Grade 1): 6 (9.0) n (%) | Neutropenia (Grade 1): 0 (0.0) n (%) | Neutrophil count decrease (Grade 1): 0 (0.0) n (%) | Pain in extremity (Grade 1): 3 (4.5) n (%) | Petechiae (Grade 1): 5 (7.5) n (%) | Pruritus (Grade 1): 3 (4.5) n (%) | Rash (Grade 1): 5 (7.5) n (%) | Seborrheic keratosis (Grade 1): 3 (4.5) n (%) | Skin laceration (Grade 1): 2 (3.0) n (%) | Upper respiratory tract infection (Grade 1): 3 (4.5) n (%) | Urinary tract infection (Grade 1): 1 (1.5) n (%) | Arthralgia (Grade 2): 5 (7.5) n (%) | Back pain (Grade 2): 2 (3.0) n (%) | Bronchitis (Grade 2): 3 (4.5) n (%) | Cellulitis (Grade 2): 3 (4.5) n (%) | Constipation (Grade 2): 1 (1.5) n (%) | Contusion (Grade 2): 3 (4.5) n (%) | Cough (Grade 2): 1 (1.5) n (%) | Diarrhoea (Grade 2): 2 (3.0) n (%) | Dizziness (Grade 2): 4 (6.0) n (%) | Epistaxis (Grade 2): 1 (1.5) n (%) | Fatigue (Grade 2): 6 (9.0) n (%) | Headache (Grade 2): 0 (0.0) n (%) | Hypertension (Grade 2): 7 (10.4) n (%) | Insomnia (Grade 2): 2 (3.0) n (%) | Muscle spasms (Grade 2): 1 (1.5) n (%) | Myalgia (Grade 2): 2 (3.0) n (%) | Nausea (Grade 2): 1 (1.5) n (%) | Neutropenia (Grade 2): 0 (0.0) n (%) | Neutrophil count decrease (Grade 2): 2 (3.0) n (%) | Pain in extremity (Grade 2): 3 (4.5) n (%) | Petechiae (Grade 2): 0 (0.0) n (%) | Pruritus (Grade 2): 1 (1.5) n (%) | Rash (Grade 2): 0 (0.0) n (%) | Seborrheic keratosis (Grade 2): 1 (1.5) n (%) | Skin laceration (Grade 2): 2 (3.0) n (%) | Upper respiratory tract infection (Grade 2): 1 (1.5) n (%) | Urinary tract infection (Grade 2): 4 (6.0) n (%) | Arthralgia (Grade 3): 0 (0.0) n (%) | Back pain (Grade 3): 0 (0.0) n (%) | Bronchitis (Grade 3): 1 (1.5) n (%) | Cellulitis (Grade 3): 1 (1.5) n (%) | Constipation (Grade 3): 0 (0.0) n (%) | Contusion (Grade 3): 0 (0.0) n (%) | Cough (Grade 3): 0 (0.0) n (%) | Diarrhoea (Grade 3): 1 (1.5) n (%) | Dizziness (Grade 3): 0 (0.0) n (%) | Epistaxis (Grade 3): 0 (0.0) n (%) | Fatigue (Grade 3): 0 (0.0) n (%) | Headache (Grade 3): 0 (0.0) n (%) | Hypertension (Grade 3): 1 (1.5) n (%) | Insomnia (Grade 3): 0 (0.0) n (%) | Muscle spasms (Grade 3): 0 (0.0) n (%) | Myalgia (Grade 3): 0 (0.0) n (%) | Nausea (Grade 3): 0 (0.0) n (%) | Neutropenia (Grade 3): 5 (7.5) n (%) | Neutrophil count decrease (Grade 3): 2 (3.0) n (%) | Pain in extremity (Grade 3): 0 (0.0) n (%) | Petechiae (Grade 3): 0 (0.0) n (%) | Pruritus (Grade 3): 0 (0.0) n (%) | Rash (Grade 3): 0 (0.0) n (%) | Seborrheic keratosis (Grade 3): 0 (0.0) n (%) | Skin laceration (Grade 3): 0 (0.0) n (%) | Upper respiratory tract infection (Grade 3): 0 (0.0) n (%) | Urinary tract infection (Grade 3): 0 (0.0) n (%) | Arthralgia (Grade 4): 0 (0.0) n (%) | Back pain (Grade 4): 0 (0.0) n (%) | Bronchitis (Grade 4): 0 (0.0) n (%) | Cellulitis (Grade 4): 0 (0.0) n (%) | Constipation (Grade 4): 0 (0.0) n (%) | Contusion (Grade 4): 0 (0.0) n (%) | Cough (Grade 4): 0 (0.0) n (%) | Diarrhoea (Grade 4): 0 (0.0) n (%) | Dizziness (Grade 4): 0 (0.0) n (%) | Epistaxis (Grade 4): 0 (0.0) n (%) | Fatigue (Grade 4): 0 (0.0) n (%) | Headache (Grade 4): 0 (0.0) n (%) | Hypertension (Grade 4): 0 (0.0) n (%) | Insomnia (Grade 4): 0 (0.0) n (%) | Muscle spasms (Grade 4): 0 (0.0) n (%) | Myalgia (Grade 4): 0 (0.0) n (%) | Nausea (Grade 4): 0 (0.0) n (%) | Neutropenia (Grade 4): 0 (0.0) n (%) | Neutrophil count decrease (Grade 4): 1 (1.5) n (%) | Pain in extremity (Grade 4): 0 (0.0) n (%) | Petechiae (Grade 4): 0 (0.0) n (%) | Pruritus (Grade 4): 0 (0.0) n (%) | Rash (Grade 4): 0 (0.0) n (%) | Seborrheic keratosis (Grade 4): 0 (0.0) n (%) | Skin laceration (Grade 4): 0 (0.0) n (%) | Upper respiratory tract infection (Grade 4): 0 (0.0) n (%) | Urinary tract infection (Grade 4): 0 (0.0) n (%) | Serious atrial fibrillation (Safety Analysis Set, 72 patients): 2.8% | Arthralgia (Total): 9 (13.4) n (%) | Back pain (Total): 4 (6.0) n (%) | Bronchitis (Total): 4 (6.0) n (%) | Cellulitis (Total): 4 (6.0) n (%) | Constipation (Total): 4 (6.0) n (%) | Contusion (Total): 15 (22.4) n (%) | Cough (Total): 5 (7.5) n (%) | Diarrhoea (Total): 9 (13.4) n (%) | Dizziness (Total): 7 (10.4) n (%) | Epistaxis (Total): 5 (7.5) n (%) | Fatigue (Total): 14 (20.9) n (%) | Headache (Total): 4 (6.0) n (%) | Hypertension (Total): 8 (11.9) n (%) | Insomnia (Total): 5 (7.5) n (%) | Muscle spasms (Total): 5 (7.5) n (%) | Myalgia (Total): 10 (14.9) n (%) | Nausea (Total): 7 (10.4) n (%) | Neutropenia (Total): 5 (7.5) n (%) | Neutrophil count decrease (Total): 5 (7.5) n (%) | Pain in extremity (Total): 6 (9.0) n (%) | Petechiae (Total): 5 (7.5) n (%) | Pruritus (Total): 4 (6.0) n (%) | Rash (Total): 5 (7.5) n (%) | Seborrheic keratosis (Total): 4 (6.0) n (%) | Skin laceration (Total): 4 (6.0) n (%) | Upper respiratory tract infection (Total): 4 (6.0) n (%) | Urinary tract infection (Total): 5 (7.5) n (%) | Bleeding events (in vivo): 25 patients | Median time to onset of first hypertensive event (in vivo): 105 days | Patients requiring dose reductions (in vivo): 9.0% | Rate of zanubrutinib discontinuation due to AEs (in vivo): < 10%

From patent US11911386B2, “Methods of treating B-cell proliferative disorder” (BeiGene Switzerland GmbH, priority 2022, dated 2024)
